{"source": "ChEMBL document CHEMBL1201862", "about": "“PubChem BioAssay data set” (2004)", "experiment_in_all_cases": "DTP human tumour cell line panel, 48 h", "key": {"[1]": {"test_system": "786-0"}, "[2]": {"test_system": "A498"}, "[3]": {"test_system": "A549"}, "[4]": {"test_system": "ACHN"}, "[5]": {"test_system": "BT-549"}, "[6]": {"test_system": "CAKI-1"}, "[7]": {"test_system": "CCRF-CEM"}, "[8]": {"test_system": "COLO 205"}, "[9]": {"test_system": "DU-145"}, "[10]": {"test_system": "EKVX"}, "[11]": {"test_system": "HCC 2998"}, "[12]": {"test_system": "HCT-116"}, "[13]": {"test_system": "HCT-15"}, "[14]": {"test_system": "HL-60"}, "[15]": {"test_system": "HOP-62"}, "[16]": {"test_system": "HOP-92"}, "[17]": {"test_system": "HT-29"}, "[18]": {"test_system": "IGROV-1"}, "[19]": {"test_system": "K562"}, "[20]": {"test_system": "KM12"}, "[21]": {"test_system": "LOX IMVI"}, "[22]": {"test_system": "M14"}, "[23]": {"test_system": "MCF7"}, "[24]": {"test_system": "MDA-MB-231"}, "[25]": {"test_system": "MDA-MB-435"}, "[26]": {"test_system": "MDA-N"}, "[27]": {"test_system": "MOLT-4"}, "[28]": {"test_system": "Malme-3M"}, "[29]": {"test_system": "NCI-H226"}, "[30]": {"test_system": "NCI-H23"}, "[31]": {"test_system": "NCI-H460"}, "[32]": {"test_system": "NCI-H522"}, "[33]": {"test_system": "NCI/ADR-RES"}, "[34]": {"test_system": "OVCAR-3"}, "[35]": {"test_system": "OVCAR-4"}, "[36]": {"test_system": "OVCAR-5"}, "[37]": {"test_system": "OVCAR-8"}, "[38]": {"test_system": "PC-3"}, "[39]": {"test_system": "RPMI-8226"}, "[40]": {"test_system": "RXF 393"}, "[41]": {"test_system": "SF-268"}, "[42]": {"test_system": "SF-295"}, "[43]": {"test_system": "SF-539"}, "[44]": {"test_system": "SK-MEL-28"}, "[45]": {"test_system": "SK-MEL-2"}, "[46]": {"test_system": "SK-MEL-5"}, "[47]": {"test_system": "SK-OV-3"}, "[48]": {"test_system": "SN12C"}, "[49]": {"test_system": "SNB-19"}, "[50]": {"test_system": "SNB-75"}, "[51]": {"test_system": "SR"}, "[52]": {"test_system": "SW-620"}, "[53]": {"test_system": "T47D"}, "[54]": {"test_system": "TK-10"}, "[55]": {"test_system": "U-251"}, "[56]": {"test_system": "UACC-257"}, "[57]": {"test_system": "UACC-62"}, "[58]": {"test_system": "UO-31"}}, "note": "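1) Cells in 96-well plates. 2) Compound, 48 h, 5 concentrations. 3) Linear interpolation between surrounding doses. 4) Unreached endpoint = highest concentration. Abbreviation: GI50, concentration required for 50% inhibition of growth.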 The source made the active and inactive calls. Rule as the data show it: active = GI50 up to about 1.1 µM and inactive = higher."}
{"smiles": "CC(=O)OCCN1c2ccccc2Sc2cnccc21", "values": [{"measurement": "GI50", "setting": "[1]", "result": "> 10 µM (inactive)"}, {"measurement": "GI50", "setting": "[2]", "result": "> 10 µM (inactive)"}, {"measurement": "GI50", "setting": "[3]", "result": "> 10 µM (inactive)"}, {"measurement": "GI50", "setting": "[4]", "result": "> 10 µM (inactive)"}, {"measurement": "GI50", "setting": "[5]", "result": "> 10 µM (inactive)"}, {"measurement": "GI50", "setting": "[6]", "result": "> 10 µM (inactive)"}, {"measurement": "GI50", "setting": "[7]", "result": "> 10 µM (inactive)"}, {"measurement": "GI50", "setting": "[8]", "result": "> 10 µM (inactive)"}, {"measurement": "GI50", "setting": "[9]", "result": "> 10 µM (inactive)"}, {"measurement": "GI50", "setting": "[10]", "result": "8.55 µM (inactive)"}, {"measurement": "GI50", "setting": "[11]", "result": "> 10 µM (inactive)"}, {"measurement": "GI50", "setting": "[12]", "result": "> 10 µM (inactive)"}, {"measurement": "GI50", "setting": "[13]", "result": "> 10", "unit": "µM"}, {"measurement": "GI50", "setting": "[14]", "result": "> 10 µM (inactive)"}, {"measurement": "GI50", "setting": "[15]", "result": "> 10 µM (inactive)"}, {"measurement": "GI50", "setting": "[16]", "result": "> 10 µM (inactive)"}, {"measurement": "GI50", "setting": "[17]", "result": "> 10 µM (inactive)"}, {"measurement": "GI50", "setting": "[18]", "result": "> 10 µM (inactive)"}, {"measurement": "GI50", "setting": "[19]", "result": "> 10 µM (inactive)"}, {"measurement": "GI50", "setting": "[20]", "result": "0.067 µM (active)"}, {"measurement": "GI50", "setting": "[21]", "result": "> 10 µM (inactive)"}, {"measurement": "GI50", "setting": "[22]", "result": "> 10 µM (inactive)"}, {"measurement": "GI50", "setting": "[23]", "result": "> 10 µM (inactive)"}, {"measurement": "GI50", "setting": "[24]", "result": "> 10 µM (inactive)"}, {"measurement": "GI50", "setting": "[25]", "result": "> 10 µM (inactive)"}, {"measurement": "GI50", "setting": "[26]", "result": "> 10 µM (inactive)"}, {"measurement": "GI50", "setting": "[27]", "result": "> 10 µM (inactive)"}, {"measurement": "GI50", "setting": "[28]", "result": "> 10 µM (inactive)"}, {"measurement": "GI50", "setting": "[29]", "result": "> 10 µM (inactive)"}, {"measurement": "GI50", "setting": "[30]", "result": "> 10 µM (inactive)"}, {"measurement": "GI50", "setting": "[31]", "result": "> 10 µM (inactive)"}, {"measurement": "GI50", "setting": "[32]", "result": "> 10 µM (inactive)"}, {"measurement": "GI50", "setting": "[33]", "result": "> 10 µM (inactive)"}, {"measurement": "GI50", "setting": "[34]", "result": "> 10 µM (inactive)"}, {"measurement": "GI50", "setting": "[35]", "result": "> 10 µM (inactive)"}, {"measurement": "GI50", "setting": "[36]", "result": "> 10 µM (inactive)"}, {"measurement": "GI50", "setting": "[37]", "result": "> 10 µM (inactive)"}, {"measurement": "GI50", "setting": "[38]", "result": "> 10 µM (inactive)"}, {"measurement": "GI50", "setting": "[39]", "result": "> 10 µM (inactive)"}, {"measurement": "GI50", "setting": "[40]", "result": "> 10 µM (inactive)"}, {"measurement": "GI50", "setting": "[41]", "result": "> 10 µM (inactive)"}, {"measurement": "GI50", "setting": "[42]", "result": "> 10 µM (inactive)"}, {"measurement": "GI50", "setting": "[43]", "result": "> 10 µM (inactive)"}, {"measurement": "GI50", "setting": "[44]", "result": "> 10 µM (inactive)"}, {"measurement": "GI50", "setting": "[45]", "result": "> 10 µM (inactive)"}, {"measurement": "GI50", "setting": "[46]", "result": "> 10 µM (inactive)"}, {"measurement": "GI50", "setting": "[47]", "result": "> 10 µM (inactive)"}, {"measurement": "GI50", "setting": "[48]", "result": "> 10 µM (inactive)"}, {"measurement": "GI50", "setting": "[49]", "result": "> 10 µM (inactive)"}, {"measurement": "GI50", "setting": "[50]", "result": "9.38 µM (inactive)"}, {"measurement": "GI50", "setting": "[51]", "result": "> 10 µM (inactive)"}, {"measurement": "GI50", "setting": "[52]", "result": "> 10 µM (inactive)"}, {"measurement": "GI50", "setting": "[53]", "result": "> 10 µM (inactive)"}, {"measurement": "GI50", "setting": "[54]", "result": "> 10 µM (inactive)"}, {"measurement": "GI50", "setting": "[55]", "result": "> 10 µM (inactive)"}, {"measurement": "GI50", "setting": "[56]", "result": "> 10 µM (inactive)"}, {"measurement": "GI50", "setting": "[57]", "result": "> 10 µM (inactive)"}, {"measurement": "GI50", "setting": "[58]", "result": "> 10 µM (inactive)"}]}
